From the NIST ThermoML archive (doi:10.1016/j.jct.2015.04.029)
Numbers after ± are expanded uncertainties.

Columns and labels:
[1] = wn = mass fraction of the nth substance listed; conditions: for surface tension liquid-gas: Maximal bubble pressure; for mass density: 100 kPa, Liquid, Vibrating tube method
[2] = refractive index (Na D-line) (dimensionless); wn = mass fraction of the nth substance listed; conditions: 100 kPa, Liquid, Standard Abbe refractometry

CCCCn1cc[n+](C)c1.N[C@@H](CO)C(=O)[O-] [1-butyl-3-methylimidazolium L-serinate] + O
Conditions | mass density [kg/m3] | refractive index | surface tension liquid-gas [mN/m]
[1], 298.15 K, w2 = 0.00489 | 1156.16 ± 1.1 | – | –
[1], 298.15 K, w2 = 0.00632 | 1156.21 ± 1.1 | – | –
[1], 298.15 K, w2 = 0.00706 | – | – | 46.4 ± 0.4
[1], 298.15 K, w2 = 0.00783 | 1156.25 ± 1.1 | – | –
[1], 298.15 K, w2 = 0.00859 | – | – | 46.7 ± 0.4
[1], 298.15 K, w2 = 0.00933 | 1156.29 ± 1.1 | – | –
[1], 298.15 K, w2 = 0.01019 | – | – | 46.9 ± 0.5
[1], 298.15 K, w2 = 0.01094 | 1156.32 ± 1.1 | – | –
[1], 298.15 K, w2 = 0.01171 | – | – | 47.1 ± 0.5
[1], 298.15 K, w2 = 0.01331 | – | – | 47.3 ± 0.5
[1], 303.15 K, w2 = 0.00489 | 1152.97 ± 1.1 | – | –
[1], 303.15 K, w2 = 0.00632 | 1153.01 ± 1.1 | – | –
[1], 303.15 K, w2 = 0.00706 | – | – | 46.2 ± 0.4
[1], 303.15 K, w2 = 0.00783 | 1153.06 ± 1.1 | – | –
[1], 303.15 K, w2 = 0.00859 | – | – | 46.4 ± 0.4
[1], 303.15 K, w2 = 0.00933 | 1153.1 ± 1.1 | – | –
[1], 303.15 K, w2 = 0.01019 | – | – | 46.7 ± 0.4
[1], 303.15 K, w2 = 0.01094 | 1153.15 ± 1.1 | – | –
[1], 303.15 K, w2 = 0.01171 | – | – | 46.9 ± 0.5
[1], 303.15 K, w2 = 0.01331 | – | – | 47.1 ± 0.5
[1], 308.15 K, w2 = 0.00489 | 1149.77 ± 1.1 | – | –
[1], 308.15 K, w2 = 0.00632 | 1149.82 ± 1.1 | – | –
[1], 308.15 K, w2 = 0.00706 | – | – | 46 ± 0.4
[1], 308.15 K, w2 = 0.00783 | 1149.86 ± 1.1 | – | –
[1], 308.15 K, w2 = 0.00859 | – | – | 46.2 ± 0.4
[1], 308.15 K, w2 = 0.00933 | 1149.91 ± 1.1 | – | –
[1], 308.15 K, w2 = 0.01019 | – | – | 46.4 ± 0.4
[1], 308.15 K, w2 = 0.01094 | 1149.97 ± 1.1 | – | –
[1], 308.15 K, w2 = 0.01171 | – | – | 46.6 ± 0.4
[1], 308.15 K, w2 = 0.01331 | – | – | 46.9 ± 0.4
[1], 313.15 K, w2 = 0.00489 | 1146.61 ± 1.1 | – | –
[1], 313.15 K, w2 = 0.00632 | 1146.67 ± 1.1 | – | –
[1], 313.15 K, w2 = 0.00706 | – | – | 45.7 ± 0.4
[1], 313.15 K, w2 = 0.00783 | 1146.72 ± 1.1 | – | –
[1], 313.15 K, w2 = 0.00859 | – | – | 45.9 ± 0.4
[1], 313.15 K, w2 = 0.00933 | 1146.76 ± 1.1 | – | –
[1], 313.15 K, w2 = 0.01019 | – | – | 46.1 ± 0.4
[1], 313.15 K, w2 = 0.01094 | 1146.82 ± 1.1 | – | –
[1], 313.15 K, w2 = 0.01171 | – | – | 46.3 ± 0.4
[1], 313.15 K, w2 = 0.01331 | – | – | 46.6 ± 0.4
[1], 318.15 K, w2 = 0.00489 | 1143.46 ± 1.1 | – | –
[1], 318.15 K, w2 = 0.00632 | 1143.52 ± 1.1 | – | –
[1], 318.15 K, w2 = 0.00706 | – | – | 45.4 ± 0.4
[1], 318.15 K, w2 = 0.00783 | 1143.56 ± 1.1 | – | –
[1], 318.15 K, w2 = 0.00859 | – | – | 45.6 ± 0.4
[1], 318.15 K, w2 = 0.00933 | 1143.61 ± 1.1 | – | –
[1], 318.15 K, w2 = 0.01019 | – | – | 45.8 ± 0.4
[1], 318.15 K, w2 = 0.01094 | 1143.65 ± 1.1 | – | –
[1], 318.15 K, w2 = 0.01171 | – | – | 46 ± 0.4
[1], 318.15 K, w2 = 0.01331 | – | – | 46.3 ± 0.4
[1], 323.15 K, w2 = 0.00489 | 1140.24 ± 1.1 | – | –
[1], 323.15 K, w2 = 0.00632 | 1140.3 ± 1 | – | –
[1], 323.15 K, w2 = 0.00706 | – | – | 45.2 ± 0.4
[1], 323.15 K, w2 = 0.00783 | 1140.34 ± 1.1 | – | –
[1], 323.15 K, w2 = 0.00859 | – | – | 45.4 ± 0.4
[1], 323.15 K, w2 = 0.00933 | 1140.39 ± 1.1 | – | –
[1], 323.15 K, w2 = 0.01019 | – | – | 45.6 ± 0.4
[1], 323.15 K, w2 = 0.01094 | 1140.45 ± 1.1 | – | –
[1], 323.15 K, w2 = 0.01171 | – | – | 45.8 ± 0.4
[1], 323.15 K, w2 = 0.01331 | – | – | 46 ± 0.4
[1], 328.15 K, w2 = 0.00489 | 1137.09 ± 1.1 | – | –
[1], 328.15 K, w2 = 0.00632 | 1137.16 ± 1.1 | – | –
[1], 328.15 K, w2 = 0.00706 | – | – | 44.9 ± 0.4
[1], 328.15 K, w2 = 0.00783 | 1137.21 ± 1.1 | – | –
[1], 328.15 K, w2 = 0.00859 | – | – | 45.1 ± 0.4
[1], 328.15 K, w2 = 0.00933 | 1137.27 ± 1.1 | – | –
[1], 328.15 K, w2 = 0.01019 | – | – | 45.3 ± 0.4
[1], 328.15 K, w2 = 0.01094 | 1137.32 ± 1.1 | – | –
[1], 328.15 K, w2 = 0.01171 | – | – | 45.5 ± 0.4
[1], 328.15 K, w2 = 0.01331 | – | – | 45.7 ± 0.4
[1], 333.15 K, w2 = 0.00489 | 1133.97 ± 1.1 | – | –
[1], 333.15 K, w2 = 0.00632 | 1134.03 ± 1.1 | – | –
[1], 333.15 K, w2 = 0.00706 | – | – | 44.7 ± 0.4
[1], 333.15 K, w2 = 0.00783 | 1134.08 ± 1.1 | – | –
[1], 333.15 K, w2 = 0.00859 | – | – | 44.9 ± 0.4
[1], 333.15 K, w2 = 0.00933 | 1134.13 ± 1.1 | – | –
[1], 333.15 K, w2 = 0.01019 | – | – | 45.1 ± 0.4
[1], 333.15 K, w2 = 0.01094 | 1134.18 ± 1.1 | – | –
[1], 333.15 K, w2 = 0.01171 | – | – | 45.3 ± 0.4
[1], 333.15 K, w2 = 0.01331 | – | – | 45.5 ± 0.4
[1], 338.15 K, w2 = 0.00489 | 1130.83 ± 1.1 | – | –
[1], 338.15 K, w2 = 0.00632 | 1130.9 ± 1 | – | –
[1], 338.15 K, w2 = 0.00706 | – | – | 44.5 ± 0.4
[1], 338.15 K, w2 = 0.00783 | 1130.95 ± 1.1 | – | –
[1], 338.15 K, w2 = 0.00859 | – | – | 44.7 ± 0.4
[1], 338.15 K, w2 = 0.00933 | 1131.01 ± 1.1 | – | –
[1], 338.15 K, w2 = 0.01019 | – | – | 44.9 ± 0.4
[1], 338.15 K, w2 = 0.01094 | 1131.07 ± 1.1 | – | –
[1], 338.15 K, w2 = 0.01171 | – | – | 45.1 ± 0.4
[1], 338.15 K, w2 = 0.01331 | – | – | 45.4 ± 0.4
[2], 298.15 K, w2 = 0.00594 | – | 1.5125 ± 0.0005 | –
[2], 298.15 K, w2 = 0.00746 | – | 1.5122 ± 0.0005 | –
[2], 298.15 K, w2 = 0.00898 | – | 1.5117 ± 0.0005 | –
[2], 298.15 K, w2 = 0.0105 | – | 1.5112 ± 0.0005 | –
[2], 298.15 K, w2 = 0.01211 | – | 1.5108 ± 0.0005 | –
[2], 303.15 K, w2 = 0.00594 | – | 1.5117 ± 0.0005 | –
[2], 303.15 K, w2 = 0.00746 | – | 1.5113 ± 0.0005 | –
[2], 303.15 K, w2 = 0.00898 | – | 1.5109 ± 0.0005 | –
[2], 303.15 K, w2 = 0.0105 | – | 1.5104 ± 0.0005 | –
[2], 303.15 K, w2 = 0.01211 | – | 1.5099 ± 0.0005 | –
[2], 308.15 K, w2 = 0.00594 | – | 1.5109 ± 0.0005 | –
[2], 308.15 K, w2 = 0.00746 | – | 1.5104 ± 0.0005 | –
[2], 308.15 K, w2 = 0.00898 | – | 1.5101 ± 0.0005 | –
[2], 308.15 K, w2 = 0.0105 | – | 1.5096 ± 0.0005 | –
[2], 308.15 K, w2 = 0.01211 | – | 1.5091 ± 0.0005 | –
[2], 313.15 K, w2 = 0.00594 | – | 1.5099 ± 0.0005 | –
[2], 313.15 K, w2 = 0.00746 | – | 1.5094 ± 0.0005 | –
[2], 313.15 K, w2 = 0.00898 | – | 1.5091 ± 0.0005 | –
[2], 313.15 K, w2 = 0.0105 | – | 1.5087 ± 0.0005 | –
[2], 313.15 K, w2 = 0.01211 | – | 1.5083 ± 0.0005 | –
[2], 318.15 K, w2 = 0.00594 | – | 1.5089 ± 0.0005 | –
[2], 318.15 K, w2 = 0.00746 | – | 1.5084 ± 0.0005 | –
[2], 318.15 K, w2 = 0.00898 | – | 1.5079 ± 0.0005 | –
[2], 318.15 K, w2 = 0.0105 | – | 1.5075 ± 0.0005 | –
[2], 318.15 K, w2 = 0.01211 | – | 1.5071 ± 0.0005 | –
[2], 323.15 K, w2 = 0.00594 | – | 1.5078 ± 0.0005 | –
[2], 323.15 K, w2 = 0.00746 | – | 1.5073 ± 0.0005 | –
[2], 323.15 K, w2 = 0.00898 | – | 1.5068 ± 0.0005 | –
[2], 323.15 K, w2 = 0.0105 | – | 1.5064 ± 0.0005 | –
[2], 323.15 K, w2 = 0.01211 | – | 1.5059 ± 0.0005 | –
[2], 328.15 K, w2 = 0.00594 | – | 1.5071 ± 0.0005 | –
[2], 328.15 K, w2 = 0.00746 | – | 1.5065 ± 0.0005 | –
[2], 328.15 K, w2 = 0.00898 | – | 1.5059 ± 0.0005 | –
[2], 328.15 K, w2 = 0.0105 | – | 1.5055 ± 0.0005 | –
[2], 328.15 K, w2 = 0.01211 | – | 1.5049 ± 0.0005 | –
[2], 333.15 K, w2 = 0.00594 | – | 1.5059 ± 0.0005 | –
[2], 333.15 K, w2 = 0.00746 | – | 1.5055 ± 0.0005 | –
[2], 333.15 K, w2 = 0.00898 | – | 1.5049 ± 0.0005 | –
[2], 333.15 K, w2 = 0.0105 | – | 1.5045 ± 0.0005 | –
[2], 333.15 K, w2 = 0.01211 | – | 1.5041 ± 0.0005 | –
[2], 338.15 K, w2 = 0.00594 | – | 1.5051 ± 0.0005 | –
[2], 338.15 K, w2 = 0.00746 | – | 1.5045 ± 0.0005 | –
[2], 338.15 K, w2 = 0.00898 | – | 1.5041 ± 0.0005 | –
[2], 338.15 K, w2 = 0.0105 | – | 1.5036 ± 0.0005 | –
[2], 338.15 K, w2 = 0.01211 | – | 1.5032 ± 0.0005 | –
